# Laboratory results published in patent US8192962B2, “Processes for detecting toxic substances” (Daikin Industries, Ltd., priority 2001, dated 2012).
# “And” between values parts separate entries of the source, which are not always exact repeats. Equal entries are not always repeated.
# How the values were obtained:
# [1] = test system: Detoxification protein genes; test: DNA chip mRNA expression in yeast, detoxification protein genes (Table 8); format: cell-based, Saccharomyces cerevisiae S288C
# Method in brief: (§1)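 Measured as treated-to-untreated fluorescence ratio on a full-genome yeast DNA chip. Cells (S288C, YPD, 25° C.) were exposed in log phase for two hours to one chemical, dosed to curb growth without killing.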
# DNA repair protein genes = test: DNA chip mRNA expression in yeast, DNA repair protein genes (Table 3); format: cell-based, Saccharomyces cerevisiae S288C; settings: incubated two hours, concentrations as in the 1st table
# Method in brief: as §1
smiles,measurement,setting,value
"Oc1cc(Cl)c(Cl)cc1Cl [(6), 2,4,5-trichlorophenol]",The level of expressed mRNA in the presence of chemical substance/The level of expressed mRNA in the absence of chemical substance,[1]; yeast gene YOR247W,0.2
same,The level of expressed mRNA in the presence of chemical substance/The level of expressed mRNA in the absence of chemical substance,[1]; yeast gene YOR251C,0.9
same,The level of expressed mRNA in the presence of chemical substance/The level of expressed mRNA in the absence of chemical substance,[1]; yeast gene YOR273C,0.4
same,The level of expressed mRNA in the presence of chemical substance/The level of expressed mRNA in the absence of chemical substance,[1]; yeast gene YPL163C,0.6
same,The level of expressed mRNA in the presence of chemical substance/The level of expressed mRNA in the absence of chemical substance,[1]; yeast gene YPR200C,0.8
same,The level of expressed mRNA in the presence of chemical substance/The level of expressed mRNA in the absence of chemical substance,DNA repair protein genes; yeast gene YAL015C,0.7
same,The level of expressed mRNA in the presence of chemical substance/The level of expressed mRNA in the absence of chemical substance,DNA repair protein genes; yeast gene YBL019W,1.0
same,The level of expressed mRNA in the presence of chemical substance/The level of expressed mRNA in the absence of chemical substance,DNA repair protein genes; yeast gene YBR073W,0.7
same,The level of expressed mRNA in the presence of chemical substance/The level of expressed mRNA in the absence of chemical substance,DNA repair protein genes; yeast gene YCR014C,1.1
same,The level of expressed mRNA in the presence of chemical substance/The level of expressed mRNA in the absence of chemical substance,DNA repair protein genes; yeast gene YDL017W,1.1
same,The level of expressed mRNA in the presence of chemical substance/The level of expressed mRNA in the absence of chemical substance,DNA repair protein genes; yeast gene YDL059C,1.2
same,The level of expressed mRNA in the presence of chemical substance/The level of expressed mRNA in the absence of chemical substance,DNA repair protein genes; yeast gene YDL200C,0.6
same,The level of expressed mRNA in the presence of chemical substance/The level of expressed mRNA in the absence of chemical substance,DNA repair protein genes; yeast gene YDR054C,1.9
same,The level of expressed mRNA in the presence of chemical substance/The level of expressed mRNA in the absence of chemical substance,DNA repair protein genes; yeast gene YDR369C,0.6
same,The level of expressed mRNA in the presence of chemical substance/The level of expressed mRNA in the absence of chemical substance,DNA repair protein genes; yeast gene YEL019C,1.5
same,The level of expressed mRNA in the presence of chemical substance/The level of expressed mRNA in the absence of chemical substance,DNA repair protein genes; yeast gene YEL037C,0.6
same,The level of expressed mRNA in the presence of chemical substance/The level of expressed mRNA in the absence of chemical substance,DNA repair protein genes; yeast gene YER162C,0.7
same,The level of expressed mRNA in the presence of chemical substance/The level of expressed mRNA in the absence of chemical substance,DNA repair protein genes; yeast gene YFL014W,9.3
same,The level of expressed mRNA in the presence of chemical substance/The level of expressed mRNA in the absence of chemical substance,DNA repair protein genes; yeast gene YGL058W,1.0 and 1.5
same,The level of expressed mRNA in the presence of chemical substance/The level of expressed mRNA in the absence of chemical substance,DNA repair protein genes; yeast gene YGL091C,1.6
same,The level of expressed mRNA in the presence of chemical substance/The level of expressed mRNA in the absence of chemical substance,DNA repair protein genes; yeast gene YGL127C,0.6
same,The level of expressed mRNA in the presence of chemical substance/The level of expressed mRNA in the absence of chemical substance,DNA repair protein genes; yeast gene YGL163C,0.9
same,The level of expressed mRNA in the presence of chemical substance/The level of expressed mRNA in the absence of chemical substance,DNA repair protein genes; yeast gene YGL249W,2.5
same,The level of expressed mRNA in the presence of chemical substance/The level of expressed mRNA in the absence of chemical substance,DNA repair protein genes; yeast gene YGR180C,0.6 and 1.0
same,The level of expressed mRNA in the presence of chemical substance/The level of expressed mRNA in the absence of chemical substance,DNA repair protein genes; yeast gene YGR231C,1.9
same,The level of expressed mRNA in the presence of chemical substance/The level of expressed mRNA in the absence of chemical substance,DNA repair protein genes; yeast gene YGR258C,2.2
same,The level of expressed mRNA in the presence of chemical substance/The level of expressed mRNA in the absence of chemical substance,DNA repair protein genes; yeast gene YHR164C,1.4
same,The level of expressed mRNA in the presence of chemical substance/The level of expressed mRNA in the absence of chemical substance,DNA repair protein genes; yeast gene YIL036W,1.8
same,The level of expressed mRNA in the presence of chemical substance/The level of expressed mRNA in the absence of chemical substance,DNA repair protein genes; yeast gene YIL072W,1.2
same,The level of expressed mRNA in the presence of chemical substance/The level of expressed mRNA in the absence of chemical substance,DNA repair protein genes; yeast gene YIL143C,1.4
same,The level of expressed mRNA in the presence of chemical substance/The level of expressed mRNA in the absence of chemical substance,DNA repair protein genes; yeast gene YIL153W,0.9
same,The level of expressed mRNA in the presence of chemical substance/The level of expressed mRNA in the absence of chemical substance,DNA repair protein genes; yeast gene YIR002C,2.2
same,The level of expressed mRNA in the presence of chemical substance/The level of expressed mRNA in the absence of chemical substance,DNA repair protein genes; yeast gene YJL026W,1.0
same,The level of expressed mRNA in the presence of chemical substance/The level of expressed mRNA in the absence of chemical substance,DNA repair protein genes; yeast gene YJR046W,2.0
same,The level of expressed mRNA in the presence of chemical substance/The level of expressed mRNA in the absence of chemical substance,DNA repair protein genes; yeast gene YJR052W,1.4
same,The level of expressed mRNA in the presence of chemical substance/The level of expressed mRNA in the absence of chemical substance,DNA repair protein genes; yeast gene YKL145W,2.1
same,The level of expressed mRNA in the presence of chemical substance/The level of expressed mRNA in the absence of chemical substance,DNA repair protein genes; yeast gene YLR103C,1.1
same,The level of expressed mRNA in the presence of chemical substance/The level of expressed mRNA in the absence of chemical substance,DNA repair protein genes; yeast gene YLR233C,0.8
same,The level of expressed mRNA in the presence of chemical substance/The level of expressed mRNA in the absence of chemical substance,DNA repair protein genes; yeast gene YLR288C,1.2
same,The level of expressed mRNA in the presence of chemical substance/The level of expressed mRNA in the absence of chemical substance,DNA repair protein genes; yeast gene YML032C,0.9
same,The level of expressed mRNA in the presence of chemical substance/The level of expressed mRNA in the absence of chemical substance,DNA repair protein genes; yeast gene YMR035W,1.5
same,The level of expressed mRNA in the presence of chemical substance/The level of expressed mRNA in the absence of chemical substance,DNA repair protein genes; yeast gene YMR072W,1.6 and 2.4
same,The level of expressed mRNA in the presence of chemical substance/The level of expressed mRNA in the absence of chemical substance,DNA repair protein genes; yeast gene YMR096W,2.2
same,The level of expressed mRNA in the presence of chemical substance/The level of expressed mRNA in the absence of chemical substance,DNA repair protein genes; yeast gene YMR284W,0.8 and 1.2
same,The level of expressed mRNA in the presence of chemical substance/The level of expressed mRNA in the absence of chemical substance,DNA repair protein genes; yeast gene YNL213C,1.7
same,The level of expressed mRNA in the presence of chemical substance/The level of expressed mRNA in the absence of chemical substance,DNA repair protein genes; yeast gene YNL250W,0.8
same,The level of expressed mRNA in the presence of chemical substance/The level of expressed mRNA in the absence of chemical substance,DNA repair protein genes; yeast gene YNL261W,1.3
same,The level of expressed mRNA in the presence of chemical substance/The level of expressed mRNA in the absence of chemical substance,DNA repair protein genes; yeast gene YNL312W,1.7
same,The level of expressed mRNA in the presence of chemical substance/The level of expressed mRNA in the absence of chemical substance,DNA repair protein genes; yeast gene YOL043C,0.8
same,The level of expressed mRNA in the presence of chemical substance/The level of expressed mRNA in the absence of chemical substance,DNA repair protein genes; yeast gene YOR005C,1.3
same,The level of expressed mRNA in the presence of chemical substance/The level of expressed mRNA in the absence of chemical substance,DNA repair protein genes; yeast gene YOR386W,3.3
same,The level of expressed mRNA in the presence of chemical substance/The level of expressed mRNA in the absence of chemical substance,DNA repair protein genes; yeast gene YPL022W,5.2
same,The level of expressed mRNA in the presence of chemical substance/The level of expressed mRNA in the absence of chemical substance,DNA repair protein genes; yeast gene YPL164C,1.7
same,The level of expressed mRNA in the presence of chemical substance/The level of expressed mRNA in the absence of chemical substance,DNA repair protein genes; yeast gene YPL194W,1.1
same,The level of expressed mRNA in the presence of chemical substance/The level of expressed mRNA in the absence of chemical substance,DNA repair protein genes; yeast gene YPR025C,0.9
